According to PubChem BioAssay AID2060495 (Molecular Pharmacology Branch, DTP, NCI, 2025):

Tested on: 521955-158-R2-J5-PDC complex spheroid viability
Assay: Anticancer human tumor 521955-158-R2-J5-PDC patient-derived pancreatic carcinoma cell line growth inhibition [GQUAD]
Details: for IC50: curve of first compound; for viability, T/C: stronger effect = lower value; active = viability on the fitted dose curve at most 10% of control; inactive = the rest
In short: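 Multi-cell-type spheroids of tumor cells with HUVEC and mesenchymal stem cells, treated with drug combinations. Concentrations descend in half-log steps from near clinical Cmax, or from 10 microM where Cmax is unknown; viability read-out.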

[1] = second compound 0.0316 µM, first compound 0.0316 µM
[2] = second compound 0.0316 µM, first compound 0.1 µM
[3] = second compound 0.0316 µM, first compound 0.316 µM
[4] = second compound 0.0316 µM, first compound 1 µM
[5] = second compound 0.0316 µM, first compound 3.16 µM
[6] = second compound 0.0316 µM, first compound 10 µM
[7] = second compound 0.1 µM, first compound 0.0316 µM
[8] = second compound 0.1 µM, first compound 0.1 µM
[9] = second compound 0.1 µM, first compound 0.316 µM
[10] = second compound 0.1 µM, first compound 1 µM
[11] = second compound 0.1 µM, first compound 3.16 µM
[12] = second compound 0.1 µM, first compound 10 µM
[13] = second compound 0.316 µM, first compound 0.0316 µM
[14] = second compound 0.316 µM, first compound 0.1 µM
[15] = second compound 0.316 µM, first compound 0.316 µM
[16] = second compound 0.316 µM, first compound 1 µM
[17] = second compound 0.316 µM, first compound 3.16 µM
[18] = second compound 0.316 µM, first compound 10 µM
[19] = second compound 1 µM, first compound 0.0316 µM
[20] = second compound 1 µM, first compound 0.1 µM
[21] = second compound 1 µM, first compound 0.316 µM
[22] = second compound 1 µM, first compound 1 µM
[23] = second compound 1 µM, first compound 3.16 µM
[24] = second compound 1 µM, first compound 10 µM
[25] = second compound 3.16 µM, first compound 0.0316 µM
[26] = second compound 3.16 µM, first compound 0.1 µM
[27] = second compound 3.16 µM, first compound 0.316 µM
[28] = second compound 3.16 µM, first compound 1 µM
[29] = second compound 3.16 µM, first compound 3.16 µM
[30] = second compound 3.16 µM, first compound 10 µM
[31] = second compound 10 µM, first compound 0.0316 µM
[32] = second compound 10 µM, first compound 0.1 µM
[33] = second compound 10 µM, first compound 0.316 µM
[34] = second compound 10 µM, first compound 1 µM
[35] = second compound 10 µM, first compound 3.16 µM
[36] = second compound 10 µM, first compound 10 µM
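Note: spheroids exposed to agents for one week before reading.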
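Throughout, for viability, T/C: 100% = DMSO vehicle control viability.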

Cc1cccc(N(C)C(=O)C2C(O)CCN2c2nc(C)cc(C(F)(F)F)c2C#N)c1 (centres undefined) + CN(C)c1ccc(Nc2c3ccc(NC(=O)CCN4CCCC4)cc3nc3cc(NC(=O)CCN4CCCC4)ccc23)cc1
> 10 µM: IC50 (second compound 0.0316 µM) | IC50 (second compound 0.1 µM) | IC50 (second compound 0.316 µM) | IC50 (second compound 1 µM) | IC50 (second compound 3.16 µM)
2.59 µM: IC50 (second compound 10 µM)
inactive: viability, T/C [1] 110% | viability, T/C [2] 102% | viability, T/C [3] 99.6% | viability, T/C [4] 107% | viability, T/C [5] 103% | viability, T/C [6] 116% | viability, T/C [7] 102% | viability, T/C [8] 91.4% | viability, T/C [9] 99.3% | viability, T/C [10] 96.3% | viability, T/C [11] 125% | viability, T/C [12] 109% | viability, T/C [13] 104% | viability, T/C [14] 95.2% | viability, T/C [15] 103% | viability, T/C [16] 118% | viability, T/C [17] 130% | viability, T/C [18] 99.9% | viability, T/C [19] 84.6% | viability, T/C [20] 99.7% | viability, T/C [21] 96.3% | viability, T/C [22] 86% | viability, T/C [23] 94.4% | viability, T/C [24] 84.2% | viability, T/C [25] 85.8% | viability, T/C [26] 72.1% | viability, T/C [27] 77.4% | viability, T/C [28] 78% | viability, T/C [29] 93.4% | viability, T/C [30] 54.1% | viability, T/C [31] 67.2% | viability, T/C [32] 54.3% | viability, T/C [33] 58% | viability, T/C [34] 58.4% | viability, T/C [35] 48.5% | viability, T/C [36] 18.8%

O=c1[nH]cc(F)c(=O)[nH]1 + CN(C)c1ccc(Nc2c3ccc(NC(=O)CCN4CCCC4)cc3nc3cc(NC(=O)CCN4CCCC4)ccc23)cc1
inactive: viability, T/C [1] 103% | viability, T/C [2] 112% | viability, T/C [3] 97.8% | viability, T/C [4] 105% | viability, T/C [5] 109% | viability, T/C [6] 51.5% | viability, T/C [7] 91.3% | viability, T/C [8] 88.9% | viability, T/C [9] 95.9% | viability, T/C [10] 93.4% | viability, T/C [11] 95% | viability, T/C [12] 56.1% | viability, T/C [13] 91.3% | viability, T/C [14] 92.7% | viability, T/C [15] 108% | viability, T/C [16] 96.8% | viability, T/C [17] 94.4% | viability, T/C [18] 58.5% | viability, T/C [19] 80.9% | viability, T/C [20] 82.8% | viability, T/C [21] 86.1% | viability, T/C [22] 101% | viability, T/C [23] 94.8% | viability, T/C [24] 55.9% | viability, T/C [25] 86.4% | viability, T/C [26] 87.4% | viability, T/C [27] 97.1% | viability, T/C [28] 85% | viability, T/C [29] 93.9% | viability, T/C [30] 53.4% | viability, T/C [31] 58.5% | viability, T/C [32] 58.1% | viability, T/C [33] 75.3% | viability, T/C [34] 65.3% | viability, T/C [35] 66.1% | viability, T/C [36] 49.5%
> 10 µM: IC50 (second compound 0.0316 µM) | IC50 (second compound 0.1 µM) | IC50 (second compound 0.316 µM) | IC50 (second compound 1 µM) | IC50 (second compound 3.16 µM) | IC50 (second compound 10 µM)
